Experimental data reported in patent publication US20240317739A1, “NOVEL UREA DERIVATIVE COMPOUND AS RON INHIBITOR” (LG CHEM, LTD., priority 2021, published 2024).

Legend:
cMET = cMET (Homo sapiens, UniProt P08581); assay: Evaluation of inhibitory activity against MET (TR-FRET); assay type: biochemical; conditions: TR-FRET kinase assay, cMET protein
Experimental: In addition, in order to measure the enzyme activity inhibition for cMET, the evaluation was performed in the same manner as the enzyme activity inhibition measurement experiment for the RON.
(§1) Specifically, the compound was prepared to a concentration of 1 mM with 100% DMSO and was diluted 10 times in a stepwise manner through 3-fold dilution. 2 ul of the compound diluted in a stepwise manner was added to a 96-well-plate containing 48 ul of a 1× kinase reaction buffer (50 mM HEPES (pH 7.4), 0.05% BSA, 0.005% Tween-20, 1 mM DTT, 0.5 mM MnCl2, 20 mM MgCl2).
The cMET protein was diluted to a concentration of 263 nM with a cMET storage buffer (50 mM Tris-HCl (pH 7.5), 150 mM NaCl, 0.05% Brij35, 1 mM DTT, 10% Glycerol), and then diluted again to a concentration of 2 nM with a 1× kinase reaction buffer. As a substrate cocktail, a MET-specific substrate mixture (5 uM TK peptide, […]) at a concentration 2 times the final reaction concentration.
(§2) Thereafter, a 384-well-plate was prepared, and 2.5 μl of each of the diluted compounds of Examples was added to a corresponding well of experimental group wells, and 2.5 μl of a 4% DMSO solution was dispensed into high control wells and low control wells.
(§3) Thereafter, 2.5 μL of 2 nM cMET was dispensed into the high control wells and the experimental group wells, and 2.5 μL of a 1× kinase reaction buffer was added to the low control wells, and the RON and the reaction buffer were centrifuged at room temperature for 40 seconds at 1000 RPM, and then incubated at room temperature for 20 to 30 minutes. Then, 5 uL of a substrate cocktail (2×) was dispensed into all wells, centrifuged at room temperature for 40 seconds at 1000 RPM, and then incubated at room temperature for 60 minutes. Thereafter, 5 uL of 90 mM EDTA was added to all wells to terminate the reaction, and then incubated again at room temperature for 5 minutes. Thereafter, 5 uL of a 4× phosphotyrosine antibody (Perkin Elmer) containing europium was added to all wells, and then incubated at room temperature for 60 minutes. After the incubation, the 384-well-plate was read with a Vison plate reader. At this time, the excitation wavelength was 340 nm, and the emission wavelength was 620 nm and 665 nm. The 1050 value of the compound of each Example was derived using the GraphPd Prism7 program.

RON = RON (Homo sapiens, UniProt Q04912); assay: Evaluation of inhibitory activity against RON (TR-FRET); assay type: biochemical; conditions: TR-FRET kinase assay, RON protein
Sequence of RON (Q04912 25-1400, species assumed): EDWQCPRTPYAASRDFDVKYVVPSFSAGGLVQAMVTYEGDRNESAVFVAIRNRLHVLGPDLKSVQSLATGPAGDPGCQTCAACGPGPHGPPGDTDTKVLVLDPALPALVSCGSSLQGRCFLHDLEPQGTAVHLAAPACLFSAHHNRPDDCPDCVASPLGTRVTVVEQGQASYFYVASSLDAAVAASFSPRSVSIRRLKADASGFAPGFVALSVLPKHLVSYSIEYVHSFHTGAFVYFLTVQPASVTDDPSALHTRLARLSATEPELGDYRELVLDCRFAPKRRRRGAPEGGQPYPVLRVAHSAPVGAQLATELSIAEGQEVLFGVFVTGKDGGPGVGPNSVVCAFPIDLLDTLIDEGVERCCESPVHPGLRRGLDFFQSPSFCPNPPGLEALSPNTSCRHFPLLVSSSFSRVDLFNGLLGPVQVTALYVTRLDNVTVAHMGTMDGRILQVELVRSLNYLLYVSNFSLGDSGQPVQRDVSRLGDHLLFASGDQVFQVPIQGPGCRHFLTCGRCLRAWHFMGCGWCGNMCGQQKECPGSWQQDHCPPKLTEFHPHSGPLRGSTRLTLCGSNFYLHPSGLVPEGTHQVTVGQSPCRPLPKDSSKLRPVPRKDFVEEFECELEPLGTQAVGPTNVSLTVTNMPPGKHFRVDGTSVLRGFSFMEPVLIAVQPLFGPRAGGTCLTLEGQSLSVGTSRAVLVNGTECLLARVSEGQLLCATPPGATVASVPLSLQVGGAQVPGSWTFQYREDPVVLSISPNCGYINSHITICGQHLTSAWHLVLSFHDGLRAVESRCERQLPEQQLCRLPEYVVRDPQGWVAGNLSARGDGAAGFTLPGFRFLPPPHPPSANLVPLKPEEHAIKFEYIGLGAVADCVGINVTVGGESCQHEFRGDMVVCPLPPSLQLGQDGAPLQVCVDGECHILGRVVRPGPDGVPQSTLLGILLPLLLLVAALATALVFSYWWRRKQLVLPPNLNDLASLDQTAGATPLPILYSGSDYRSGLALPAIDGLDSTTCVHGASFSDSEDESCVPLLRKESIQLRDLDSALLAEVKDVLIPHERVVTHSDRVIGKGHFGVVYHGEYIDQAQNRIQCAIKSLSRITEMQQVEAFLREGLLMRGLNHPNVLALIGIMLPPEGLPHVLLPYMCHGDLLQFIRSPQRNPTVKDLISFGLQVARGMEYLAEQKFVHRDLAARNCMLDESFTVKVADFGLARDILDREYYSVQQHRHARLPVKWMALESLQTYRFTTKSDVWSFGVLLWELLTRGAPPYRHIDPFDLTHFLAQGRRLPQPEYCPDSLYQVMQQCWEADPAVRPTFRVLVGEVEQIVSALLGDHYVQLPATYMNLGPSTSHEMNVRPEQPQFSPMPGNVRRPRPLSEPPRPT
Experimental: In order to measure the inhibitory activity of each of the compounds of Examples against RON, the IC50 of each of the compounds was measured using a Time-Resolved Fluorescence Energy Transfer Chemistry (TR-FRET).
as §1, with “a 1×kinase” for “a 1× kinase”, “7.4), 0.01%” for “7.4), 0.05% BSA, 0.005%”, “Tween-20, 5” for “Tween-20, 1”, “mM Na3VO4, 2 mM EGTA, 10” for “mM MnCl2, 20”
The RON protein was diluted to a concentration of 49.3 nM with an RON storage buffer (50 mM Tris-HCl (pH 7.5), 150 mM NaCl, 0.5 mM EDTA, 0.02% Triton X-100), and then diluted again to a concentration of 0.4 nM with a 1×kinase reaction buffer. As a substrate cocktail, a RON-specific substrate mixture (40 uM ULight-labeled Poly GT, 100 nM ATP) at a concentration 2 times the final reaction concentration.
as §2
as §3, with “of 0.4” for “of 2”, “nM RON” for “nM cMET”, “of 30” for “of 90”, “The IC50” for “The 1050”

Sequence of cMET (P08581 25-1390): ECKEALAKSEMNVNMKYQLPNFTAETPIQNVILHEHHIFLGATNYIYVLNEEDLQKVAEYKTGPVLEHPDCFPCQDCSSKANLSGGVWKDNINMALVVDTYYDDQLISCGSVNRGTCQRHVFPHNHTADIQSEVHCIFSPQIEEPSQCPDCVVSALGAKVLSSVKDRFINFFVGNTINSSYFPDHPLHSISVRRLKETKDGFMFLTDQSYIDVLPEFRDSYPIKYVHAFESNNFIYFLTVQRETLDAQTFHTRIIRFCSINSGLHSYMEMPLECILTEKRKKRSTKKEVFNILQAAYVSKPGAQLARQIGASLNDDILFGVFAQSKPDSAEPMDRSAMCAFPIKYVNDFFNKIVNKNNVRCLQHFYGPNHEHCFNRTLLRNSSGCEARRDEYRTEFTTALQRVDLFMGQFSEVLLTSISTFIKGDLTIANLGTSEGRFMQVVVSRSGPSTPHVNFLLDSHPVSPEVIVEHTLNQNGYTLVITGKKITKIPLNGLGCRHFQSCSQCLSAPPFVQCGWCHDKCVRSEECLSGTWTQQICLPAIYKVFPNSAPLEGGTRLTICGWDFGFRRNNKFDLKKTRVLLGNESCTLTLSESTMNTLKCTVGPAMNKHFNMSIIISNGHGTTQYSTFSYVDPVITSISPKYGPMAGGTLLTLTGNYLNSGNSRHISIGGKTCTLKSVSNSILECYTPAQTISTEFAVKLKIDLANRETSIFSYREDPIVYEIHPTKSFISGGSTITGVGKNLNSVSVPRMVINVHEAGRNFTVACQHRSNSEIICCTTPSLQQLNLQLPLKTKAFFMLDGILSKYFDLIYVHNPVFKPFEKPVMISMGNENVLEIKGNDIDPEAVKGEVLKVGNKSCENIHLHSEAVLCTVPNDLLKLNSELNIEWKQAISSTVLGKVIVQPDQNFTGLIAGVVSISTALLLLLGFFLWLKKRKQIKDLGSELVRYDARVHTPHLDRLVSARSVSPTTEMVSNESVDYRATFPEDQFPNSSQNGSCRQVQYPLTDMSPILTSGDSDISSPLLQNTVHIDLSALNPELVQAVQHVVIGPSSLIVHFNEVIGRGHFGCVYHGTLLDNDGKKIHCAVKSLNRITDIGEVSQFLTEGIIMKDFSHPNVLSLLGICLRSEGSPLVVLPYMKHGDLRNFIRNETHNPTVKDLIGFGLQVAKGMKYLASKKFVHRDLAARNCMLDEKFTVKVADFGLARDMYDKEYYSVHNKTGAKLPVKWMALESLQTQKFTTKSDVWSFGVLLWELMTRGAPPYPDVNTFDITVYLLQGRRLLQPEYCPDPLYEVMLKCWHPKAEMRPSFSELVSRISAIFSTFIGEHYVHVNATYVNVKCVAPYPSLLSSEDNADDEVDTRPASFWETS

Work on `CC(C)n1c(=O)[nH]c2nccc(Oc3ccc(NC(=O)c4cnn(-c5cccnn5)c4C(F)(F)F)cc3F)c21` [Example 35, N-(3-fluoro-4-((1-isopropyl-2-oxo-2,3-dihydro-1H-imidazo[4,5-b]pyridine-7-yl)oxy)phenyl)-1-(pyridazine-3-yl)-5-(trifluoromethyl)-1H-pyrazole-4-carboxamide] yielded an IC50 (cMET) of 500 to 5000 nM and an IC50 (RON) of less than 50 nM.
In the case of `Cc1c(C(=O)Nc2ccc(Oc3ccnc4[nH]c(=O)n(C(C)C)c34)c(F)c2)cnn1-c1cncnc1` [Example 5, N-(3-fluoro-4-((1-isopropyl-2-oxo-2,3-dihydro-1H-imidazo[4,5-b]pyridine-7-yl)oxy)phenyl)-5-methyl-1-(pyrimidine-5-yl)-1H-pyrazole-4-carboxamide], the IC50 (cMET) is reported as 500 to 5000 nM and the IC50 (RON) is reported as 50 to 500 nM.
`CCc1ccnc(-n2ncc(C(=O)Nc3ccc(Oc4ccnc5[nH]c(=O)n(C(C)C)c45)c(F)c3)c2C(F)(F)F)c1` [Example 30, 1-(4-ethylpyridine-2-yl)-N-(3-fluoro-4-((1-isopropyl-2-oxo-2,3-dihydro-1H-imidazo[4,5-b]pyridine-7-yl)oxy)phenyl)-5-(trifluoromethyl)-1H-pyrazole-4-carboxamide] was tested, and the IC50 (cMET) was 500 to 5000 nM and the IC50 (RON) was 50 to 500 nM.
`CC(C)n1c(=O)[nH]c2nccc(Oc3ccc(NC(=O)c4cnn(-c5cccnc5)c4C(F)(F)F)cc3F)c21` [Example 23, N-(3-fluoro-4-((1-isopropyl-2-oxo-2,3-dihydro-1H-imidazo[4,5-b]pyridine-7-yl)oxy)phenyl)-1-(pyridine-3-yl)-5-(trifluoromethyl)-1H-pyrazole-4-carboxamide] gave an IC50 (cMET) of 500 to 5000 nM and an IC50 (RON) of less than 50 nM.
`COc1ccnc(-n2ncc(C(=O)Nc3ccc(Oc4ccnc5[nH]c(=O)n(C(C)C)c45)c(F)c3)c2C(F)(F)F)c1` [Example 33, N-(3-fluoro-4-((1-isopropyl-2-oxo-2,3-dihydro-1H-imidazo[4,5-b]pyridine-7-yl)oxy)phenyl)-1-(4-methoxypyridine-2-yl)-5-(trifluoromethyl)-1H-pyrazole-4-carboxamide] showed an IC50 (cMET) of 500 to 5000 nM and an IC50 (RON) of less than 50 nM.
With `CC(C)n1c(=O)[nH]c2nccc(Oc3ccc(NC(=O)c4cnn(-c5ncccc5C(F)(F)F)c4C(F)(F)F)cc3F)c21` [Example 12, N-(3-fluoro-4-((1-isopropyl-2-oxo-2,3-dihydro-1H-imidazo[4,5-b]pyridine-7-yl)oxy)phenyl)-5-(trifluoromethyl)-1-(3-(trifluoromethyl)pyridine-2-yl)-1H-pyrazole-4-carboxamide] the IC50 (cMET) was 500 to 5000 nM and the IC50 (RON) was less than 50 nM.
`CC(C)n1c(=O)[nH]c2nccc(Oc3ccc(NC(=O)c4cnn(-c5nccc6ccccc56)c4C(F)(F)F)cc3F)c21` [Example 20, N-(3-fluoro-4-((1-isopropyl-2-oxo-2,3-dihydro-1H-imidazo[4,5-b]pyridine-7-yl)oxy)phenyl)-1-(isoquinoline-1-yl)-5-(trifluoromethyl)-1H-pyrazole-4-carboxamide] showed an IC50 (cMET) of 500 to 5000 nM and an IC50 (RON) of less than 50 nM.
With `CC(C)n1c(=O)[nH]c2nccc(Oc3ccc(NC(=O)c4cnn(-c5cc(C(F)(F)F)ccn5)c4C(F)(F)F)cc3F)c21` [Example 17, N-(3-fluoro-4-((1-isopropyl-2-oxo-2,3-dihydro-1H-imidazo[4,5-b]pyridine-7-yl)oxy)phenyl)-5-(trifluoromethyl)-1-(4-(trifluoromethyl)pyridine-2-yl)-1H-pyrazole-4-carboxamide] the IC50 (cMET) was greater than 5000 nM and the IC50 (RON) was 50 to 500 nM.
In the case of `Cc1cccnc1-n1ncc(C(=O)Nc2ccc(Oc3ccnc4[nH]c(=O)n(C(C)C)c34)c(F)c2)c1C(F)(F)F` [Example 8, N-(3-fluoro-4-((1-isopropyl-2-oxo-2,3-dihydro-1H-imidazo[4,5-b]pyridine-7-yl)oxy)phenyl)-1-(3-methylpyridine-2-yl)-5-(trifluoromethyl)-1H-pyrazole-4-carboxamide], the IC50 (cMET) is reported as 500 to 5000 nM and the IC50 (RON) is reported as less than 50 nM.
`CC(C)n1c(=O)[nH]c2nccc(Oc3ccc(NC(=O)c4cnn(-c5ncccc5Br)c4C(F)(F)F)cc3F)c21` [Example 19, 1-(3-bromopyridine-2-yl)-N-(3-fluoro-4-((1-isopropyl-2-oxo-2,3-dihydro-1H-imidazo[4,5-b]pyridine-7-yl)oxy)phenyl)-5-(trifluoromethyl)-1H-pyrazole-4-carboxamide] showed an IC50 (cMET) of 500 to 5000 nM and an IC50 (RON) of less than 50 nM.
`CCOc1cccnc1-n1ncc(C(=O)Nc2ccc(Oc3ccnc4[nH]c(=O)n(C(C)C)c34)c(F)c2)c1C(F)(F)F` [Example 37, 1-(3-ethoxypyridine-2-yl)-N-(3-fluoro-4-((1-isopropyl-2-oxo-2,3-dihydro-1H-imidazo[4,5-b]pyridine-7-yl)oxy)phenyl)-5-(trifluoromethyl)-1H-pyrazole-4-carboxamide] showed an IC50 (cMET) of 500 to 5000 nM and an IC50 (RON) of 50 to 500 nM.
In the case of `CC(C)n1c(=O)[nH]c2nccc(Oc3ccc(NC(=O)c4cnn(-c5cncnc5)c4C(F)(F)F)cc3F)c21` [Example 4, N-(3-fluoro-4-((1-isopropyl-2-oxo-2,3-dihydro-1H-imidazo[4,5-b]pyridine-7-yl)oxy)phenyl)-1-(pyrimidine-5-yl)-5-(trifluoromethyl)-1H-pyrazole-4-carboxamide], the IC50 (cMET) is reported as greater than 5000 nM and the IC50 (RON) is reported as less than 50 nM.
For `CCc1c(C(=O)Nc2ccc(Oc3ccnc4[nH]c(=O)n(C(C)C)c34)c(F)c2)cnn1-c1cncnc1` [Example 2, 5-ethyl-N-(3-fluoro-4-((1-isopropyl-2-oxo-2,3-dihydro-1H-imidazo[4,5-b]pyridine-7-yl)oxy)phenyl)-1-(pyrimidine-5-yl)-1H-pyrazole-4-carboxamide], the IC50 (cMET) was greater than 5000 nM and the IC50 (RON) was less than 50 nM.
In the case of `CC(C)n1c(=O)[nH]c2nccc(Oc3ccc(NC(=O)c4cnn(-c5ncccn5)c4C(F)(F)F)cc3F)c21` [Example 25, N-(3-fluoro-4-((1-isopropyl-2-oxo-2,3-dihydro-1H-imidazo[4,5-b]pyridine-7-yl)oxy)phenyl)-1-(pyrimidine-2-yl)-5-(trifluoromethyl)-1H-pyrazole-4-carboxamide], the IC50 (cMET) is reported as 500 to 5000 nM and the IC50 (RON) is reported as less than 50 nM.
`CC(C)n1c(=O)[nH]c2nccc(Oc3ccc(NC(=O)c4cnn(-c5ccncc5)c4C(F)(F)F)cc3F)c21` [Example 24, N-(3-fluoro-4-((1-isopropyl-2-oxo-2,3-dihydro-1H-imidazo[4,5-b]pyridine-7-yl)oxy)phenyl)-1-(pyridine-4-yl)-5-(trifluoromethyl)-1H-pyrazole-4-carboxamide] was tested, and the IC50 (cMET) was 500 to 5000 nM and the IC50 (RON) was less than 50 nM.
Molecule `CCc1c(C(=O)Nc2ccc(Oc3ccnc4[nH]c(=O)n(C5CCCC5)c34)c(F)c2)cnn1-c1cncnc1` [Example 6, N-(4-((1-cyclopentyl-2-oxo-2,3-dihydro-1H-imidazo[4,5-b]pyridine-7-yl)oxy)-3-fluorophenyl)-5-ethyl-1-(pyrimidine-5-yl)-1H-pyrazole-4-carboxamide] has an IC50 (cMET) greater than 5000 nM and an IC50 (RON) of 50 to 500 nM.
`COc1cccnc1-n1ncc(C(=O)Nc2ccc(Oc3ccnc4[nH]c(=O)n(C(C)C)c34)c(F)c2)c1C(F)(F)F` [Example 28, N-(3-fluoro-4-((1-isopropyl-2-oxo-2,3-dihydro-1H-imidazo[4,5-b]pyridine-7-yl)oxy)phenyl)-1-(3-methoxypyridine-2-yl)-5-(trifluoromethyl)-1H-pyrazole-4-carboxamide] was tested, and the IC50 (cMET) was 500 to 5000 nM and the IC50 (RON) was less than 50 nM.
